Assay results reported in PubChem BioAssay (NCI).
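Five compound concentrations were applied to cells in 96-well plates for 48 hours; endpoints were derived by simple linear interpolation of the resulting dose-response curve. At the TGI there is no net growth.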

What was measured:
Test in all cases: inhibition of tumour cell growth, NCI panel, 48 h
[1] = tested on: M14 melanoma
[2] = tested on: SNB-19 CNS
[3] = tested on: OVCAR-3 ovarian
[4] = tested on: MALME-3M melanoma
[5] = tested on: OVCAR-4 ovarian
[6] = tested on: TK-10 renal
[7] = tested on: SF-295 CNS
[8] = tested on: UACC-257 melanoma
[9] = tested on: DU-145 prostate
[10] = tested on: BT-549 breast

Measured: TGI

O=S(=O)(c1ccccc1)N1CCC1c1ccccc1 (configuration not stated)
not listed: [9] | [10]
> 100 µM: all other assays above

Cc1cnoc1/N=C1\C=C(Nc2oncc2C)C(=O)c2ccccc21
not listed: [9] | [10]
> 100 µM: all other assays above

[N-]=[N+]=NC1C(Cl)C(=O)NC(=O)N1[C@H]1C[C@H](O)[C@@H](CO)O1 (some centres not stated)
not listed: [9] | [10]
> 100 µM: all other assays above

CC(C)CC(NC(=O)C(O)C(N)Cc1ccccc1)C(=O)O (configuration not stated)
not listed: [10]
> 100 µM: all other assays above

CC(C)(Sc1cc(C(C)(C)C)c(O)c(C(C)(C)C)c1)Sc1cc(C(C)(C)C)c(O)c(C(C)(C)C)c1
not listed: [3]
> 100 µM: all other assays above

CC1=NC2(C(=O)O)C3(C(=O)O)N=C(C)OC3(C(F)(F)F)C2(C(F)(F)F)O1 (configuration not stated)
not listed: [9] | [10]
> 100 µM: all other assays above

Clc1ccc(NCNC2Nc3ccccc3N2)cc1Cl
not listed: [5] | [10]
> 100 µM: all other assays above

CN(c1ccccc1)c1nc(=[N+](C)C)ss1
not listed: [3] | [9] | [10]
> 100 µM: all other assays above

NC(=O)N/N=C(\Cc1cc(=O)oc2cc(O)ccc12)C(=O)Nc1ccccc1C(N)=O
not listed: [4]
> 100 µM: all other assays above

CN(C)C(=C1C(Br)=C(Br)C(Br)=C1Br)N(C)C
not listed: [2] | [9] | [10]
> 100 µM: all other assays above

Cc1c2ccccc2c(=O)n2c(-c3ccccn3)cccc12
not listed: [9] | [10]
> 100 µM: all other assays above

O=S1(=O)[C@H](c2ccccc2)c2c(-c3ccccc3)sc(-c3ccccc3)c2[C@@H]1c1ccccc1
not listed: [9] | [10]
> 100 µM: all other assays above
